According to ChEMBL document CHEMBL1152319, “Bromopyrrole alkaloids from marine sponges of the genus Agelas” (2009):
Converted amounts (≈) assume the structure as drawn.

Assays:
Assay type in all cases: functional
Aspergillus niger = assay: Antifungal activity against Aspergillus niger
Bacillus subtilis = assay: Antibacterial activity against Bacillus subtilis
Micrococcus luteus = assay: Antibacterial activity against Micrococcus luteus
Staphylococcus aureus = assay: Antibacterial activity against Staphylococcus aureus

Row | SMILES | MIC (Aspergillus niger) | MIC (Bacillus subtilis) | MIC (Micrococcus luteus) | MIC (Staphylococcus aureus)
1 | O=C1NC(=O)/C(=C/[C@@H](O)CNC(=O)c2cc(Br)c(Br)[nH]2)N1 [MUKANADIN F] | 16.7 µg/mL (≈ 39.6 µM) |  |  | 
2 | N=C1N[C@H]2N3C(=N)N[C@@H](O)[C@@]34[C@H]([C@H](CNC(=O)c3cc(Br)c[nH]3)[C@@H](CNC(=O)c3cc(Br)c(Br)[nH]3)[C@@H]4Cl)[C@@]2(O)N1 [NAGELAMIDE O] |  | 33.3 µg/mL (≈ 43.4 µM) | 33.3 µg/mL (≈ 43.4 µM) | 33.3 µg/mL (≈ 43.4 µM)
